Reference: publication PMC2650797 (Carcinogenesis, 2009)

Target: T1, Cytochrome P450 (CYP) 1A2 (Homo sapiens, UniProt P05177)
T1 sequence (P05177 2-516): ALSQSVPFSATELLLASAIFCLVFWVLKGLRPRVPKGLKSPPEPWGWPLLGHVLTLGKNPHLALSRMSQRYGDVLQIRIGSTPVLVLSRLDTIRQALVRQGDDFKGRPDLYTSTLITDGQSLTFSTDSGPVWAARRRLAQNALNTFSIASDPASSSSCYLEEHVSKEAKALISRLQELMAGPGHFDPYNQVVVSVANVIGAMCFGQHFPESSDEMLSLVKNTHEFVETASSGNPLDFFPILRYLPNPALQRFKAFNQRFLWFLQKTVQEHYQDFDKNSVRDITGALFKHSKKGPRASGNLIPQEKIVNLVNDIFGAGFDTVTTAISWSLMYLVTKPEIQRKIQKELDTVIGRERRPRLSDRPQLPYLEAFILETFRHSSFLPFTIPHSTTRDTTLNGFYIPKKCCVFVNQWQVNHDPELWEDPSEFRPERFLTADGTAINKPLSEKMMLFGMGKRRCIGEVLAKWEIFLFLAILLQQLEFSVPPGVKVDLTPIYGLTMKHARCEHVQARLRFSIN
Assay: 7-ethoxyresorufin O-deethylase fluorescence inhibition assay
Format: biochemical

SMILES | IC50 [µM]
Cc1c(-c2cnccn2)ssc1=S [OLT, 4-methyl-5-pyrazinyl-3H-1,2-dithiole-3-thione] | ~0.2
CC(C)(C)c1cc(=S)ss1 [TBD, 5-tert-butyl-3H-1,2-dithiole-3-thione] | ~12.8
